Our source for the IC50 values is ChEMBL document CHEMBL3425435, “4,6-Diarylaminothiazines as BACE1 Inhibitors and Their Use for the Reduction of Beta-Amyloid Production” (ACS Med Chem Lett, 2015).

The target of the assay is Beta-secretase 1 (Homo sapiens, UniProt P56817). Briefly: Inhibition of BACE1 in human H4 cells stably transfected with APP751 containing Swedish mutation assessed as reduction in Abeta (1 to 40) and Abeta (1 to 42) production incubated for 19 hrs. It is filed as cell-based.
Chain of Beta-secretase 1 (P56817 whole entry): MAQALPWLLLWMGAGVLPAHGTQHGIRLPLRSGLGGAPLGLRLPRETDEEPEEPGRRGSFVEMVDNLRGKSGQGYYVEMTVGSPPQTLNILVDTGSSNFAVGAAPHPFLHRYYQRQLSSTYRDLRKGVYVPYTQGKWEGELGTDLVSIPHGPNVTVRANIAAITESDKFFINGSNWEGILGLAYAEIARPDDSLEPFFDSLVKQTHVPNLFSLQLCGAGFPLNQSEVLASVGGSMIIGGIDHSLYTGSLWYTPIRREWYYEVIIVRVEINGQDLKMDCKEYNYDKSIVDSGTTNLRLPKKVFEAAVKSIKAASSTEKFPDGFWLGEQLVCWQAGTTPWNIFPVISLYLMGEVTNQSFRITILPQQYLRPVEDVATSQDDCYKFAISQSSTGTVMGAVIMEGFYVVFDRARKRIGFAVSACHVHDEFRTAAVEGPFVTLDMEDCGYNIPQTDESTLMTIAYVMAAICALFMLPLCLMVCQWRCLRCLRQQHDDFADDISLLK

As a reminder, the IC50 is the midpoint of a concentration-inhibition curve. As to `Cc1noc(C)c1[C@@H]1C[C@@](C)(c2cc(-c3cncnc3)c(F)cc2F)N=C(N)S1`, the IC50 stood at 8 nM.

On to `Cc1noc(CC(C)(C)O)c1[C@@H]1C[C@@](C)(c2ccc(F)cc2F)N=C(N)S1`, for which the IC50 was 110 nM.

Regarding `Cc1noc(C)c1[C@@H]1C[C@@H](c2cc(-c3cccc(C#N)c3)cs2)N=C(N)S1`, the IC50 was found to be 300 nM.

As to `Cc1noc(C)c1[C@@H]1C[C@@H](c2cccc(-c3cncnc3)c2)N=C(N)S1`, the IC50 stood at 230 nM.

As to `Cc1noc(C)c1[C@@H]1C[C@@](C)(c2cc(-c3cccnc3C#N)c(F)cc2F)N=C(N)S1`, the IC50 is 87 nM.

Take `Cc1noc(C)c1[C@@H]1C[C@@H](c2cc(NC(=O)c3ccc(Br)cn3)ccc2F)N=C(N)S1`: the IC50 stood at 22 nM.

For the molecule `CC#Cc1cncc(-c2csc([C@@H]3C[C@@H](c4c(C)noc4C)SC(N)=N3)c2)c1`, the IC50 was 60 nM.

With `Cc1noc(C)c1[C@@H]1C[C@@H](c2cc(-c3cncnc3)c(F)cc2F)N=C(N)S1`, the IC50 was determined as 200 nM.

Turning to `CC#Cc1cncc(-c2cc(Cl)c([C@]3(C)C[C@@H](c4c(C)noc4C)SC(N)=N3)s2)c1`, the IC50 is 30 nM.
